Experiments:
U-87MG cells = test: Cell death in U-87MG by free and PLGA-encapsulated peptide; assay type: cell-based, human; conditions: 12 h, PI staining and FACS; Fig 7B
Experimental: B. U-87MG cells (2×10^5) were incubated for 12 h with the indicated concentrations of DMSO, Retro-Tf-D-LP4 peptide (Pep), or Retro-Tf-D-LP4 encapsulated in PLGA nanoparticles (PLGA-Pep). Samples of Retro-Tf-D-LP4 encapsulated in PLGA nanoparticles were centrifuged (15000g, 5 min) to separate the supernatant (Sup), containing free peptide, and the pellet, containing encapsulated Retro-Tf-D-LP4 peptide. Cell death was analyzed by PI staining and FACS analysis. C. Graphical representation of the orthotopic animal experiment. […] E. Calculated tumor volumes after 20 (dark grey bars) and 29 (light grey bars) days post-treatment start. […]
100% DMSO and then diluted 20-fold with sterile DDW into three groups (6 animals/group) and treated every to reach a concentration of 25 mg/ml in a final DMSO third day with DMSO (1.44%), Retro-Tf-D-LP4 (10 concentration of 5%. PLGA (50 mg) was dissolved in mg/kg) or Retro-Tf-D-LP4 (10 mg/kg) encapsulated by acetone (1 ml). […] Tumor volume was analyzed using VivoQuant 2.10 10 ml of aqueous solution containing 1% PVA (w/v). […]
(Calbiochem, UK). […] Thirteen days post-inoculation, using various primary antibodies (sources and dilutions tumor volume was measured and calculated (100-130 as detailed in supplementary Table 2), followed by mm3) and mice were randomized into three groups (5 the appropriate HRP-conjugated secondary antibodies mice/group). […]

GSC markers = test: Expression of GSC markers in treated tumors (IHC, immunoblot); assay type: in vivo, human U-87MG in nude mice; conditions: treated tumors vs PBS/DMSO
Experimental: Sections were also hematoxylin-stained and visualized by microscopy. B. Tissue lysates obtained from controls and several TF-D-LP4-TTs were immunoblotted for Nestin, Sox2, NGFR, CD133, and Klf4. C. Quantitative analysis of immunoblots is shown (n=2-4). D. Immunoblot analysis of, Klf4, Sox2, Nestin and Musashi expression in U-87MG and G7 cell lines, using specific antibodies. E. Quantitative analysis of immunoblots. […] G. G7 (·) and U-87MG cells (○) (2×10^5) were incubated for 3 h with the DMSO (0.15%) or with the indicated concentration of Retro-Tf-D-LP4 peptide in serum-free growth medium at 37°C and then subjected to FITC-Annexin V/PI staining and flow cytometry analysis. H. Representative FACS analysis of DMSO- (left) and 5 μM of Retro-Tf-D-LP4- (right) treated G7 or U-87MG cells.
Formalin-fixed, paraffin-embedded sections of control and peptide-TTs were hematoxylin-eosin stained, probed with appropriate antibodies via IHC staining or immunoblotting of cells and tissue extracts.
PLGA encapsulation of the VDAC1-based minutes using an UltraMicroPump III (World Precision peptide Retro-Tf-D-LP4 Instruments, Sarasota, FL). After infusion, the needle was left in place for 1 minute before slow withdrawal. The burr
Retro-Tf-D-LP4-loaded PLGA complexes were hole was sealed using sterile bone wax, and the wound prepared by the solvent displacement method with some was closed with 5.0 nylon surgical suture. All surgical modifications, as previously reported [2 3]. Twenty procedures were performed under sterile conditions.
100% DMSO and then diluted 20-fold with sterile DDW into three groups (6 animals/group) and treated every to reach a concentration of 25 mg/ml in a final DMSO third day with DMSO (1.44%), Retro-Tf-D-LP4 (10 concentration of 5%. PLGA (50 mg) was dissolved in mg/kg) or Retro-Tf-D-LP4 (10 mg/kg) encapsulated by acetone (1 ml). Then, 105 µl of peptide were added to the PLGA. Mice were subjected to MRI (at days 20 and 29), PLGA-acetone solution. The resulting peptide-PLGA- sacrificed, and brains were excised and processed for acetone mixture was added drop-wise (0.5 ml/min) into IHC. Tumor volume was analyzed using VivoQuant 2.10 10 ml of aqueous solution containing 1% PVA (w/v). The software. These experimental protocols were approved by mixtures were stirred continuously at room temperature the Institutional Animal Care and Use Committee of Ben-until complete evaporation of the organic solvent. The Gurion University. nanoparticles were centrifuged at 15,000g (4 °C for 20 min) and the pellet was re-suspended in sterile DDW and Gel electrophoresis and immunoblotting washed two times. The resulting pellet was mixed with HBSS solution. Cells or tumor tissue were lysed using lysis buffer (50 mM Tris-HCl, pH 7.5, 150 mM NaCl, 1
Xenograft and intracranial-orthotopic mouse mM EDTA, 1.5 mM MgCl2, 10% glycerol, 1% Triton models X-100, supplemented with a protease inhibitor cocktail
(Calbiochem, UK). Cell lysates were then centrifuged at U-87MG glioblastoma cells (3 x106) were inoculated 600xg (10 min at 4°C) and samples (10-40 μg of protein) s.c. into the hind leg ﬂanks of athymic eight-week old were subjected to SDS-PAGE and immunoblotting male nude mice (Envigo). Thirteen days post-inoculation, using various primary antibodies (sources and dilutions tumor volume was measured and calculated (100-130 as detailed in supplementary Table 2), followed by mm3) and mice were randomized into three groups (5 the appropriate HRP-conjugated secondary antibodies mice/group). Each treatment substance was injected into (i.e., anti-mouse, anti-rabbit or anti-goat). Blots the established s,c. tumors using PBS containing 0.26% were developed using enhanced chemiluminescence DMSO or peptide in PBS, 0.26% DMSO/20 μM). The (Biological Industries). Band intensities were analyzed xenografts were injected 20 µl per tumor (2 points) every by densitometry using Multi Gauge software (Fujifilm) […]
two days. […]

Row | SMILES | cell death, U-87MG (U-87MG cells) | CD133 expression (GSC markers) | Klf4 expression (GSC markers) | NGFR expression (GSC markers) | Nestin expression (GSC markers) | S100B expression (GSC markers) | Sox2 expression (GSC markers)
1 | CC[C@H](C)[C@H](NC(=O)[C@H](Cc1ccc(O)cc1)NC(=O)[C@@H]1CCCN1C(=O)[C@H](CCCNC(=N)N)NC(=O)[C@H](Cc1c[nH]cn1)NC(=O)[C@H](CO)NC(=O)[C@H](Cc1c[nH]c2ccccc12)NC(=O)[C@@H](NC(=O)[C@H](Cc1c[nH]c2ccccc12)NC(=O)[C@H](CCC(=O)O)NC(=O)[C@@H](CCCCN)NC(=O)[C@@H](CCCCN)NC(=O)[C@@H](CC(C)C)NC(=O)[C@@H](CCC(=O)O)NC(=O)[C@H](NC(=O)[C@@H](C)NC(=O)[C@H](NC(=O)[C@@H](CC(N)=O)NC(=O)[C@@H](CC(C)C)NC(=O)[C@@H](C)NC(=O)[C@@H](Cc1c[nH]c2ccccc12)NC(=O)[C@H](NC(=O)[C@@H](C)NC(=O)CNC(=O)[C@@H](CC(N)=O)NC(=O)[C@@H](CO)NC(=O)[C@@H](CC(N)=O)NC(=O)[C@H](CCCCN)NC(=O)[C@H](Cc1c[nH]c2ccccc12)NC(=O)[C@@H](NC(=O)[C@H](Cc1c[nH]c2ccccc12)NC(=O)[C@@H](N)CCCCN)[C@@H](C)O)[C@H](C)O)C(C)C)[C@H](C)O)[C@@H](C)O)C(=O)N[C@@H](C)C(=O)N[C@@H](Cc1c[nH]cn1)C(=O)O [Retro-Tf-D-LP4] | induces cell death | – | – | – | – | – | –
2 | CC[C@H](C)[C@H](NC(=O)[C@H](C)NC(=O)[C@@H](N)Cc1c[nH]cn1)C(=O)N[C@@H](Cc1ccc(O)cc1)C(=O)N1CCC[C@H]1C(=O)N[C@@H](CCCNC(=N)N)C(=O)N[C@@H](Cc1c[nH]cn1)C(=O)N[C@@H](CO)C(=O)N[C@@H](Cc1c[nH]c2ccccc12)C(=O)N[C@H](C(=O)N[C@@H](Cc1c[nH]c2ccccc12)C(=O)N[C@@H](CCC(=O)O)C(=O)N[C@H](CCCCN)C(=O)N[C@H](CCCCN)C(=O)N[C@H](CC(C)C)C(=O)N[C@H](CCC(=O)O)C(=O)N[C@@H](C(=O)N[C@H](C)C(=O)N[C@@H](C(=O)N[C@H](CC(N)=O)C(=O)N[C@H](CC(C)C)C(=O)N[C@H](C)C(=O)N[C@H](Cc1c[nH]c2ccccc12)C(=O)N[C@@H](C(=O)N[C@H](C)C(=O)NCC(=O)N[C@H](CC(N)=O)C(=O)N[C@H](CO)C(=O)N[C@H](CC(N)=O)C(=O)N[C@@H](CCCCN)C(=O)N[C@@H](Cc1c[nH]c2ccccc12)C(=O)N[C@H](C(=O)N[C@@H](Cc1c[nH]c2ccccc12)C(=O)N[C@@H](CCCCN)C(=O)O)[C@@H](C)O)[C@H](C)O)C(C)C)[C@H](C)O)[C@@H](C)O [Tf-D-LP4] | – | markedly lower | markedly lower | markedly lower | markedly lower | markedly lower | markedly lower

Reference: article PMC5458211, “Mitochondrial VDAC1-based peptides: Attacking oncogenic properties in glioblastoma” (Oncotarget, 2017)
